pIC50: −log10 of the molar value.
Columns and labels:
PLK1 kinase domain = target: T1, PLK1 kinase domain (Homo sapiens, UniProt P53350); test: Assay for Inhibition of PLK1 (SPA enzyme activity); type: biochemical; conditions: 2 μM ATP, read-out: Ave pIC50 PLK Enzyme Inhibition (converted)
T1 construct: made in house; host or cells: baculovirus-infected T. ni insect cells

[1] = test system: lung (H460) tumor cell line; test: Methylene Blue Growth Inhibition Assay, H460; type: cell-based; conditions: Homo sapiens, NCI-H460, 72 h; Cell Line H460, 3 days; read-out: MeB IC50
In short: (§1)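 Methylene blue dye retained by cells after a 3-day, 37° C compound incubation in DMEM/10% FBS (0.3% DMSO) served as the biomass readout at 620 nm. IC50 values were interpolated by nonlinear regression against vehicle wells.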

[2] = test system: colon (HCT116) tumor cell line; test: Methylene Blue Growth Inhibition Assay, HCT116; type: cell-based; conditions: Homo sapiens, HCT-116, 72 h; Cell Line HCT116, 3 days; read-out: MeB IC50
In short: as §1

[3] = test system: Normal Human foreskin fibroblasts (HFF); test: Methylene Blue Growth Inhibition Assay, HFF; type: cell-based; conditions: 72 h, Cell Line HFF, 3 days, read-out: MeB IC50
In short: as §1

[4] = test system: breast tumor (MCF7) cell line; test: Methylene Blue Growth Inhibition Assay, MCF7; type: cell-based; conditions: Homo sapiens, 72 h; Cell Line MCF7, 3 days; read-out: MeB IC50
In short: as §1

[5] = test system: prostate (PC3) tumor cell line; test: Methylene Blue Growth Inhibition Assay, PC3; type: cell-based; conditions: Homo sapiens, 72 h; Cell Line PC3, 3 days; read-out: MeB IC50
In short: as §1

[6] = test system: colon (RKO) tumor cell line; test: Methylene Blue Growth Inhibition Assay, RKO; type: cell-based; conditions: Homo sapiens, 72 h, 3 days, read-out: MeB IC50
In short: as §1

A549 = test: Methylene Blue Growth Inhibition Assay, A549; type: cell-based; conditions: Homo sapiens; Cell Line A549; read-out: MeB IC50

T1 sequence (P53350 21-346): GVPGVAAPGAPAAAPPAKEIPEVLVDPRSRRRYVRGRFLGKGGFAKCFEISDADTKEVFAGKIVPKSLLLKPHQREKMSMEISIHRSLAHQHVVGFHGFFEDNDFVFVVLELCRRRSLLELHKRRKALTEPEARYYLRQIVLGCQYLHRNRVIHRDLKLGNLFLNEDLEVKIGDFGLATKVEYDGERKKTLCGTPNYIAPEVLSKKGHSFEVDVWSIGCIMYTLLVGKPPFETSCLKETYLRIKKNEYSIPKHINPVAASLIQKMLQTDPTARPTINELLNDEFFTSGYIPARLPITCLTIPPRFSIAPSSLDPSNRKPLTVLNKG

| SMILES | IC50 (PLK1 kinase domain) [nM] | pIC50 [1] | pIC50 [2] | pIC50 [4] | pIC50 [5] | pIC50 [6] | pIC50 (A549) | pIC50 [3] |
| --- | --- | --- | --- | --- | --- | --- | --- | --- |
| COc1cc2ncn(-c3cc(OCc4ccncc4Br)c(C(N)=O)s3)c2cc1OC [Example 120, 3-[(3-Bromopyridin-4-yl)methoxy]-5-(5,6-dimethoxy-1H-benzimidazol-1-yl)thiophene-2-carboxamide] | < 100 | 5.00 to 6.00 | 5.00 to 6.00 | 5.00 to 6.00 | < 5.00 | > 6.00 | 5.00 to 6.00 | < 5.00 |
| COc1cc2ncn(-c3cc(OC(C)c4ccccc4Cl)c(C(N)=O)s3)c2cc1OC (centres unmarked) [Example 126, 3-[1-(2-Chlorophenyl)ethoxy]-5-(5,6-dimethoxy-1H-benzimidazol-1-yl)thiophene-2-carboxamide] |  | > 6.00 | > 6.00 | 5.00 to 6.00 | 5.00 to 6.00 | > 6.00 | > 6.00 | > 6.00 |
| NC(=O)c1sc(-n2cnc3ccc(OCC4CCNCC4)cc32)cc1OCc1ccccc1C(F)(F)F [Example 143, 5-{6-[(4-Piperidinylmethyl)oxy]-1H-benzimidazol-1-yl}-3-({[2-(trifluoromethyl)phenyl]-methyl}oxy)-2-thiophenecarboxamide] | < 100 | 5.00 to 6.00 | > 6.00 | > 6.00 | 5.00 to 6.00 | > 6.00 | 5.00 to 6.00 | 5.00 to 6.00 |
| COc1cc2ncn(-c3cc(OCc4cccnc4Cl)c(C(N)=O)s3)c2cc1OC [Example 101, 3-[(2-Chloropyridin-3-yl)methoxy]-5-(5,6-dimethoxy-1H-benzimidazol-1-yl)thiophene-2-carboxamide] | < 100 | 5.00 to 6.00 | 5.00 to 6.00 | 5.00 to 6.00 | 5.00 to 6.00 | > 6.00 | 5.00 to 6.00 | < 5.00 |
| COc1cc2ncn(-c3cc(OCc4cccnc4F)c(C(N)=O)s3)c2cc1OC [Example 102, 5-(5,6-Dimethoxy-1H-benzimidazol-1-yl)-3-[(2-fluoropyridin-3-yl)methoxy]thiophene-2-carboxamide] | < 100 | 5.00 to 6.00 | 5.00 to 6.00 | 5.00 to 6.00 | < 5.00 | > 6.00 | 5.00 to 6.00 | < 5.00 |
| COc1cc2c(cc1OCCCN1CCCC1=O)ncn2-c1cc(OCc2ccccc2C(F)(F)F)c(C(N)=O)s1 [Example 134, 5-(6-(Methyloxy)-5-{[3-(2-oxo-1-pyrrolidinyl)propyl]oxy}-1H-benzimidazol-1-yl)-3-({[2-(trifluoromethyl)phenyl]methyl}oxy)-2-thiophenecarboxamide] | < 100 | 5.00 to 6.00 | 5.00 to 6.00 | 5.00 to 6.00 | < 5.00 | 5.00 to 6.00 | 5.00 to 6.00 | < 5.00 |
| CS(=O)(=O)c1ccc2ncn(-c3cc(OCc4ccccc4C(F)(F)F)c(C(N)=O)s3)c2c1 [Example 121] | < 100 | 5.00 to 6.00 | 5.00 to 6.00 | 5.00 to 6.00 | < 5.00 | 5.00 to 6.00 | 5.00 to 6.00 | < 5.00 |

Further lines, with some results ahead:

| IC50 (PLK1 kinase domain) [nM] | pIC50 [1] | pIC50 [2] | pIC50 [4] | pIC50 [5] | pIC50 [6] | pIC50 (A549) | SMILES | pIC50 [3] |
| --- | --- | --- | --- | --- | --- | --- | --- | --- |
| < 100 | > 6.00 | 5.00 to 6.00 | > 6.00 | < 5.00 | > 6.00 | > 6.00 | COc1cc2ncn(-c3cc(OS(=O)(=O)c4ccccc4C)c(C(N)=O)s3)c2cc1OC [Example 154, 2-(Aminocarbonyl)-5-(5,6-dimethoxy-1H-benzimidazol-1-yl)thien-3-yl-2-methylbenzenesulfonate] | < 5.00 |
| < 100 | > 6.00 | > 6.00 | > 6.00 | 5.00 to 6.00 | > 6.00 | > 6.00 | COc1cc2ncn(-c3cc(OCc4cc5c(cc4Cl)OCO5)c(C(N)=O)s3)c2cc1OC [Example 91, 3-[(6-Chloro-1,3-dibenzodioxol-5-yl)methoxy]-5-(5,6-dimethoxy-1H-benzimidazol-1-yl)thiophene-2-carboxamide] | < 5.00 |
| < 100 | > 6.00 | 5.00 to 6.00 | 5.00 to 6.00 | 5.00 to 6.00 | > 6.00 | > 6.00 | COc1cc2ncn(-c3cc(OCc4ccccc4OC(F)(F)F)c(C(N)=O)s3)c2cc1OC [Example 107, 5-(5,6-Dimethoxy-1H-benzimidazol-1-yl)-3-{[2-(trifluoromethoxy)benzyl]oxy}thiophene-2-carboxamide] | 5.00 to 6.00 |
| < 100 | > 6.00 | > 6.00 | > 6.00 | 5.00 to 6.00 | > 6.00 | > 6.00 | COc1cc2ncn(-c3cc(OC(C)c4ccccc4C(F)(F)F)c(C(N)=O)s3)c2cc1OC (centres unmarked) [Example 127] | 5.00 to 6.00 |
| < 100 | > 6.00 | > 6.00 | > 6.00 | < 5.00 | > 6.00 | > 6.00 | COc1cc2ncn(-c3cc(OCc4ccccc4OC(F)F)c(C(N)=O)s3)c2cc1OC [Example 108, 3-{[2-(Difluoromethoxy)benzyl]oxy}-5-(5,6-dimethoxy-1H-benzimidazol-1-yl)thiophene-2-carboxamide] | < 5.00 |
